Measurements taken from paper PMC11960843, “Exploration of the tunability of BRD4 degradation by DCAF16 trans-labelling covalent glues” (European journal of medicinal chemistry, 2024).

Key:
[1] = molecular target: BRD4BD1 (Homo sapiens, UniProt O60885); experiment: BRD4 AlphaScreen competition assay (JQ1-biotin displacement), BRD4BD1; format: binding; conditions: read-out: IC50 BRD4BD1
[2] = molecular target: T1, BRD4 (Homo sapiens, UniProt O60885); experiment: Western blot of BRD4 degradation, wild-type K562 cells; format: cell-based; set-up: an 11 amino acid peptide knock-in tag to a protein-of-interest using CRISPR insertion; endogenous in cells; conditions: wild-type K562, 1 μM, 16 h
Procedure: (§1) Western blotting was used to determine the degradation potencies of the covalent BRD4 degraders.
(§2) Cells were washed with PBS and lysed in RIPA lysis buffer (Thermo Fisher Scientific) with Halt Protease Inhibitor Cocktail (Thermo Fisher Scientific) and Benzonase (Sigma-Aldrich) for 20 min on ice. The insoluble fraction was removed by centrifugation, the protein concentration was quantified using a BCA protein assay kit (Thermo Fisher Scientific), and an equal amount of lysate was run on SDS–PAGE 4–12% Bis–Tris Protein Gels (Thermo Fisher Scientific) and then transferred to nitrocellulose membrane with a XCell II Blot Module Wet Tank Transfer System (Thermo Fisher Scientific). Membranes were blocked in Intercept (PBS) Blocking Buffer (LI-COR Biosciences) and incubated with primary antibodies overnight at 4 °C. The membranes were then washed in Tris-buffered saline with Tween-20 (TBS-T), incubated for 1 h with secondary IRDye-conjugated antibodies (LI-COR Biosciences) and washed three times in TBS-T for 5 min before near-infrared western blot detection on an Odyssey Imaging System (LI-COR Biosciences).

[3] = molecular target: T2, BRD4BD2 (Homo sapiens, UniProt O60885); experiment: BRD4 AlphaScreen competition assay (JQ1-biotin displacement), BRD4BD2; format: binding; conditions: read-out: IC50 BRD4BD2
[4] = molecular target: T2, BRD4BD2; experiment: BRD4BD2-eGFP and mCherry flow reporter degradation assay, wild type K562 cells; conditions: for Dmax: K562, read-out: maximal degradation (Dmax/16h) of BRD4BD2, K562 cells, 16 h incubation; for DC50: read-out: DC50 of BRD4BD2 degradation; for increase in degradation potency in comparison to GNE011: BRD4BD2 reporter, 16 h
Description: This assay involves the co-expression of mCherry with BRD4BD1/2 fused to an enhanced green fluorescent protein (eGFP) tag, and the subsequent fluorescence measurement of BRD4BD1/2-eGFP normalized to mCherry as a readout for BRD4BD1/2 degradation. It allows for a quantitative, rapid, and facile screening of several MGDs, in a dose-and time-dependent manner. […] Thus, the BRD4BD2 stability system was used to test all subsequent GNE011 analogs in wild type and DCAF16−/− cells.
One day after infection, reporter cells were selected with puromycin at a concentration of 2 μg/mL.
(§5) K562 cells stably expressing degradation reporter were dosed with DMSO or degraders at various times and concentrations using D300e Digital Dispenser (HP). The fluorescent signal was quantified by flow cytometry (LSRFortessa flow cytometer, BD Biosciences) and analyzed using FlowJo (flow cytometry analysis software, BD Biosciences). The geometric mean of the eGFP and mCherry fluorescent signal for round and mCherry-positive cells was calculated. GFP expression was normalized to mCherry signal and drug treatments were compared to DMSO controls.

[5] = molecular target: T3, BRD4BD2-DCAF16 ternary complex (Homo sapiens, UniProt O60885+Q9NXF7); experiment: DDB1-DCAF16-BRD4BD2 TR-FRET ternary complex formation assay; format: biochemical; conditions: for TR-FRETmax (520 nm/490 nm ratio): 6 h degrader incubation; for BRD4BD2-DCAF16 ternary complex formation / DCAF16 recruitment (in words): time-dependent TR-FRET; for incubation time of saturation / maximum TR-FRET signal: measured at 1, 2, 4, 6 and 24 h
T3 construct: E3 ligase to bromodomain 2 (BRD4BD2); His6 (N); StrepII (N); Avi (N); made in house; host or cells: BRD4BD2: E. coli (pET100/D-TOPO)
Description: To determine the relationship between covalent warheads and DCAF16 recruitment to BRD4BD2, we used a time-resolved fluorescence energy transfer (TR-FRET) assay to measure induced BRD4BD2-DCAF16 ternary complex formation (Fig. 3A).
Furthermore, we wanted to determine the kinetics of the BRD4BD2-DCAF16 interaction given its covalent nature. […] Additionally, to understand the relationship between ternary complex formation kinetics and warhead reactivity we measured the depletion of the covalent analogs in the presence of glutathione using MS (Table S2). […] Titrations of compounds to induce the DCAF16-BRD4BD complex were carried out by mixing 100 nM biotinylated BRD4BD2, 500 nM BODIPY-FL labeled DDB1ΔB-DCAF16 variants, and 2 nM terbium-coupled streptavidin (Invitrogen) in an assay buffer containing 50 mM HEPES pH 8.0, 200 mM NaCl, 0.1% Pluronic F-68 solution (Sigma), 0.5% bovine serum albumin (BSA) (w/v) and 1 mM TCEP. […] The TR-FRET signal of each data point was extracted by calculating the 520/490 nm ratio.

[6] = system: glutathione; experiment: GSH stability (glutathione reactivity) assay by LC-MS/MS; format: physicochemical; conditions: PBS containing 5 mM reduced glutathione; PBS + 5 mM GSH; extrapolated from 240 min assay
Description: Furthermore, we wanted to determine the kinetics of the BRD4BD2-DCAF16 interaction given its covalent nature. […] Additionally, to understand the relationship between ternary complex formation kinetics and warhead reactivity we measured the depletion of the covalent analogs in the presence of glutathione using MS (Table S2). […].

[7] = molecular target: T1, BRD4; experiment: Washout experiment, Western blot of BRD4 degradation in K562 cells; format: cell-based; set-up: an 11 amino acid peptide knock-in tag to a protein-of-interest using CRISPR insertion; endogenous in cells; conditions: K562, 1 μM; for BRD4 degradation after washout compared to no washout (in words): 4 h treatment, 20 h compound-free vs 24 h no washout
Procedure: This experiment involves cell treatment and incubation with a ‘covalent’ compound, followed by a wash-step where the cells are washed and resuspended in compound-free cell media.
Cells were washed with PBS and lysed in RIPA lysis buffer (Thermo Fisher Scientific) with Halt Protease Inhibitor Cocktail (Thermo Fisher Scientific) and Benzonase (Sigma-Aldrich) for 20 min on ice. […] Membranes were blocked in Intercept (PBS) Blocking Buffer (LI-COR Biosciences) and incubated with primary antibodies overnight at 4 °C. The membranes were then washed in Tris-buffered saline with Tween-20 (TBS-T), incubated for 1 h with secondary IRDye-conjugated antibodies (LI-COR Biosciences) and washed three times in TBS-T for 5 min before near-infrared western blot detection on an Odyssey Imaging System (LI-COR Biosciences).

[8] = GSH stability (glutathione reactivity) assay by LC-MS/MS; format: physicochemical; conditions: phosphate buffered saline (PBS) without glutathione, extrapolated from 240 min assay
[9] = molecular target: T1, BRD4; experiment: BRD4-HiBiT assay, WT JURKAT cells; format: cell-based; set-up: an 11 amino acid peptide knock-in tag to a protein-of-interest using CRISPR insertion; endogenous in cells; host or cells: JURKAT, HiBiT-edited (wild type or DCAF16 knockout); conditions: 6 h; for BRD4 degradation: at <100 nM
Procedure: (§3) Thereafter, we sought to characterize the BRD4 cellular degradation potencies in a dose-dependent manner at a shorter time point to minimize secondary effects. This was performed using the bioluminescent HiBiT-BRD4 assay, which consists of an 11 amino acid peptide knock-in tag to a protein-of-interest using CRISPR insertion. A complementary polypeptide (LgBiT) detects and interacts with all HiBiT tagged proteins, thereby reconstituting a luminescent NanoBiT enzyme, that can be quantified by its bioluminescence. WT and DCAF16 KO JURKAT cell lines expressing the BRD4-HiBiT system were generated to quantify dose-dependent BRD4 degradation after 6 h incubation (Fig. 4C).
(§4) After 6 h, the plates were subjected to Nano-Glo HiBiT Lytic detection system (Promega, #N3040) as described in manufacturer's manual. The assays were performed in biological triplicate. DC50 values were determined using a non-linear regression curve fit in GraphPad PRISM 9.5.1.

[10] = molecular target: T1, BRD4; experiment: Western blot of BRD4 degradation, DCAF16 KO K562 cells; format: cell-based; set-up: an 11 amino acid peptide knock-in tag to a protein-of-interest using CRISPR insertion; endogenous in cells; conditions: DCAF16 KO K562, 1 μM, 16 h
Procedure: as §1, §2

[11] = molecular target: T1, BRD4; experiment: BRD4-HiBiT assay, DCAF16 KO JURKAT cells; format: cell-based; set-up: an 11 amino acid peptide knock-in tag to a protein-of-interest using CRISPR insertion; endogenous in cells; host or cells: JURKAT, HiBiT-edited (wild type or DCAF16 knockout); conditions: 6 h
Procedure: as §3, §4

[12] = molecular target: T2, BRD4BD2; experiment: BRD4BD2-eGFP and mCherry flow reporter degradation assay, DCAF16 KO K562 cells
Description: In order to investigate the degradation of BRD4 by GNE011 and related analogs, we used a fluorescent stability reporter assay reported previously (Fig. 2A) [17]. This assay involves the co-expression of mCherry with BRD4BD1/2 fused to an enhanced green fluorescent protein (eGFP) tag, and the subsequent fluorescence measurement of BRD4BD1/2-eGFP normalized to mCherry as a readout for BRD4BD1/2 degradation. It allows for a quantitative, rapid, and facile screening of several MGDs, in a dose-and time-dependent manner. […] Thus, the BRD4BD2 stability system was used to test all subsequent GNE011 analogs in wild type and DCAF16−/− cells.
Lentivirus containing sgRNA was transduced to 2 × 10^6 of K562-Cas9 cells at 10% volume ratio by spin infection. FACS sorting was performed to enrich BFP+ cells one week after infection. […] Clonal sgDCAF16-expressing K562-Cas9 cells were isolated after one month of expansion, and the genomic sequences were validated via deep sequencing of PCR amplicons targeting sgDCAF16 cutting sites (MGH CCIB DNA Core Service).
as §5

T3 sequence (Q9NXF7 whole entry, other chains not shown): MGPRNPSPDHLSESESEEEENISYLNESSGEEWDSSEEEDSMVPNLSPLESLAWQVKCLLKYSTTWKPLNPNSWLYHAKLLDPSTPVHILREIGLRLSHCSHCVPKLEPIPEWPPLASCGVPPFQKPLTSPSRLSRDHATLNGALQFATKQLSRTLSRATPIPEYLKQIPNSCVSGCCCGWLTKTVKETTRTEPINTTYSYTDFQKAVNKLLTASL

| Compound | IC50 [1] | BRD4 degradation by Western blot (in words) [2] | IC50 [3] | Dmax [4] | maximal degradation (Dmax/16h) of BRD4BD2 ([4]; K562 cells, 16 h incubation) | TR-FRETmax (520 nm/490 nm ratio) [5] | half-life [6] | BRD4 degradation after washout compared to no washout (in words) [7] | half-life [8] | DC50 ([4]; K562 cells, 16 h incubation) | BRD4 degradation (in words) [9] | BRD4 degradation by Western blot in DCAF16 KO (in words) [10] | BRD4BD2-DCAF16 ternary complex formation / DCAF16 recruitment (in words) [5] | BRD4 degradation in DCAF16 KO (in words) [11] | DCAF16 dependent BRD4BD2 degradation (in words) ([4]; K562 cells, 16 h incubation) | BRD4 degradation without washout (in words) ([7]; 24 h no washout) | BRD4BD2 degradation activity in DCAF16 knockout cells (in words) [12] | increase in degradation potency in comparison to GNE011 ([4]; K562 cells) | BRD4 degradation [9] | incubation time of saturation / maximum TR-FRET signal [5] |
| --- | --- | --- | --- | --- | --- | --- | --- | --- | --- | --- | --- | --- | --- | --- | --- | --- | --- | --- | --- | --- |
| Cc1sc2c(c1C)C(c1ccc(C#CCN)cc1)=N[C@@H](CC(=O)OC(C)(C)C)c1nnc(C)n1-2 [GNE011, tert-butyl (S)-2-(4-(4-(3-aminoprop-1-yn-1-yl)phenyl)-2,3,9-trimethyl-6H-thieno[3,2-f][1,2,4]triazolo[4,3-a][1,4]diazepin-6-yl)acetate, reference compound] | 11.2 nM | moderate degradation | 7.79 nM | ~50% | 49% | 0.18 | 11.3 h | nearly a complete rescue | > 12.5 h |  |  |  |  |  |  |  |  |  |  |  |
| Cc1sc2c(c1C)C(c1ccc(C#CC(N)=O)cc1)=N[C@@H](CC(=O)OC(C)(C)C)c1nnc(C)n1-2 [MMH287, tert-butyl (S)-2-(4-(4-(3-amino-3-oxoprop-1-yn-1-yl)phenyl)-2,3,9-trimethyl-6H-thieno[3,2-f][1,2,4]triazolo[4,3-a][1,4]diazepin-6-yl)acetate] | 12.9 nM | nearly complete BRD4 degradation |  | 69% |  | 0.15 | 6.33 h | nearly a complete rescue | > 12.5 h | 51 nM | noticeable BRD4 degradation | completely rescued by DCAF16 KO | almost no increase in ternary complex formation | completely rescued by DCAF16 KO |  |  |  |  |  |  |
| Cc1sc2c(c1C)C(c1ccc(/C=C/C(N)=O)cc1)=N[C@@H](CC(=O)OC(C)(C)C)c1nnc(C)n1-2 [MMH271, tert-butyl (S,E)-2-(4-(4-(3-amino-3-oxoprop-1-en-1-yl)phenyl)-2,3,9-trimethyl-6H-thieno[3,2-f][1,2,4]triazolo[4,3-a][1,4]diazepin-6-yl)acetate] | 8.08 nM |  | 7.58 nM |  |  | 0.14 | > 12.5 h |  | > 12.5 h |  |  |  | no significant DCAF16 recruitment |  | almost no DCAF16 dependent BRD4BD2 degradation | showed BRD4 degradation in 24 h no washout experiments |  |  |  |  |
| C=CS(=O)(=O)Nc1ccc(C2=N[C@@H](CC(=O)OC(C)(C)C)c3nnc(C)n3-c3sc(C)c(C)c32)cc1 [MMH2, tert-butyl (S)-2-(2,3,9-trimethyl-4-(4-(vinylsulfonamido)phenyl)-6H-thieno[3,2-f][1,2,4]triazolo[4,3-a][1,4]diazepin-6-yl)acetate] | 48.6 nM | nearly complete BRD4 degradation |  | 95% |  | 3.75 | > 12.5 h | no or minimal difference |  | 1 nM | noticeable BRD4 degradation | completely rescued by DCAF16 KO |  | completely rescued by DCAF16 KO |  |  | almost entirely ablated | ~1000 fold | > 90% | 1 h |
| C=CC(=O)Nc1ccc(C2=N[C@@H](CC(=O)OC(C)(C)C)c3nnc(C)n3-c3sc(C)c(C)c32)cc1 [MMH1, tert-butyl (S)-2-(4-(4-acrylamidophenyl)-2,3,9-trimethyl-6H-thieno[3,2-f][1,2,4]triazolo[4,3-a][1,4]diazepin-6-yl)acetate] | 17.7 nM | nearly complete BRD4 degradation | 15.5 nM | 95% |  | 1.78 | 9.53 h | no or minimal difference |  | 0.3 nM | noticeable BRD4 degradation | completely rescued by DCAF16 KO |  | completely rescued by DCAF16 KO |  |  | almost entirely ablated | ~ 3333 fold | > 90% | 24 h |
